This note sets out measurements from patent US9694016B2 (Novartis AG, priority 2013, dated 2017).

Chain of b-Raf (V600E) (P15056 whole entry V600E): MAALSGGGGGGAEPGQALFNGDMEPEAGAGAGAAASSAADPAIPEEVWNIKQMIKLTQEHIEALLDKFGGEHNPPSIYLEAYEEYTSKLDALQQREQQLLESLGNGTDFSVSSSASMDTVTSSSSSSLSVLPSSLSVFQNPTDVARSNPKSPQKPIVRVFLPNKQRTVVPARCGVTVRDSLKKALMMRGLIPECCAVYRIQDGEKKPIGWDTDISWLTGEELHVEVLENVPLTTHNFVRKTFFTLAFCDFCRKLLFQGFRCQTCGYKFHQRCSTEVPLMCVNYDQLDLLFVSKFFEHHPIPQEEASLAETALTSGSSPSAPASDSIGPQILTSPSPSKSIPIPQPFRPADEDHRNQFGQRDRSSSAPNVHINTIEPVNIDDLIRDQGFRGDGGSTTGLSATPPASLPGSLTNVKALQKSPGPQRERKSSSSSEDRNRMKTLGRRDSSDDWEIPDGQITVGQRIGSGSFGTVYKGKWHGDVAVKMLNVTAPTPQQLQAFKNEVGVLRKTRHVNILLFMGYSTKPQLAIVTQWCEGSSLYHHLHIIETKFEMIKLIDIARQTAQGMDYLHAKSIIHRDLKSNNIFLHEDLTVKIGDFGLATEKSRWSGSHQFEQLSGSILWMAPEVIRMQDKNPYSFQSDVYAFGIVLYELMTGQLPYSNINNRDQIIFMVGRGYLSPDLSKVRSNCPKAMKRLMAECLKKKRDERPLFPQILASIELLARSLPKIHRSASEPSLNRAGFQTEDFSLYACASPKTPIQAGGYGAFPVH

The first experiment addresses b-Raf (V600E) (Homo sapiens (Human), UniProt P15056, V600E). The note with it: read-out: b-Raf IC-50; AlphaScreen, 60 min pre-incubation, 3 hours reaction.
In the case of `COc1cccc(NC(=O)c2ccc(C)c(-c3cc(N4CCOCC4)c(=O)n(C)c3)c2)c1` [Example 440, N-(3-methoxyphenyl)-4-methyl-3-(1-methyl-5-morpholino-6-oxo-1,6-dihydropyridin-3-yl)benzamide], the IC50 was 93.9 nM. `CCOc1nnc(-c2cc(NC(=O)c3ccnc(C(F)(F)F)c3)cnc2C)cc1N1CCOCC1` [Example 616, N-(5-(6-ethoxy-5-morpholinopyridazin-3-yl)-6-methylpyridin-3-yl)-2-(trifluoromethyl)isonicotinamide]: the IC50 was determined as 1.6 nM. The same measure, in the same setting: to `Cc1ccc(NC(=O)c2ccnc(C(C)(C)C#N)c2)cc1-c1cc(N2CCOCC2)c(=O)n(C)n1` [Example 640, 2-(2-cyanopropan-2-yl)-N-(4-methyl-3-(1-methyl-5-morpholino-6-oxo-1,6-dihydropyridazin-3-yl)phenyl)isonicotinamide] belongs 5.4 nM; to `Cc1ccc(NC(=O)c2ccnc(C(C)(C)O)c2)cc1-c1cc(N2CCOCC2)c(OC2CCOCC2)nn1` [Example 581, 2-(2-hydroxypropan-2-yl)-N-(4-methyl-3-(5-morpholino-6-((tetrahydro-2H-pyran-4-yl)oxy)pyridazin-3-yl)phenyl)isonicotinamide], 2.2 nM; to `COCCOc1nnc(-c2cc(NC(=O)c3ccnc(C(C)(F)F)c3)ccc2C)cc1N1CCOCC1` [Example 597, 2-(1,1-difluoroethyl)-N-(3-(6-(2-methoxyethoxy)-5-morpholinopyridazin-3-yl)-4-methylphenyl)isonicotinamide], 0.5 nM. With `COc1nnc(-c2cc(NC(=O)c3cccc(S(C)(=O)=O)c3)ccc2C)cc1N1CCOCC1` [Example 553, N-(3-(6-methoxy-5-morpholinopyridazin-3-yl)-4-methylphenyl)-3-(methylsulfonyl)benzamide], the IC50 was 1.2 nM. Still for that read-out and setting: then `Cc1ncc(NC(=O)c2ccnc(C(C)(C)O)c2)cc1-c1cc(N2CCOCC2)c(OC2CCOCC2)nn1` [Example 634, 2-(2-hydroxypropan-2-yl)-N-(6-methyl-5-(5-morpholino-6-((tetrahydro-2H-pyran-4-yl)oxy)pyridazin-3-yl)pyridin-3-yl)isonicotinamide], with 17.1 nM. The same measure, in the same setting: to `CCNc1nc(-c2cc(NC(=O)c3ccnc(C(C)(F)F)c3)ccc2C)cc(N2CCOCC2)n1` [Example 697, 2-(1,1-difluoroethyl)-N-(3-(2-(ethylamino)-6-morpholinopyrimidin-4-yl)-4-methylphenyl)isonicotinamide] belongs 1 nM. Same read-out and setting: to `Cc1ccc(NC(=O)c2cccc(C(F)(F)F)c2)cc1-c1nc(N2CCOCC2)c2cnn(C)c2n1` [Example 840, N-(4-methyl-3-(1-methyl-4-morpholino-1H-pyrazolo[3,4-d]pyrimidin-6-yl)phenyl)-3-(trifluoromethyl)benzamide] belongs 0.6 nM; to `CCNc1nc(-c2cc(NC(=O)c3ccnc(C(F)(F)CC)c3)ccc2C)cc(N2CCOCC2)n1` [Example 706, 2-(1,1-difluoropropyl)-N-(3-(2-(ethylamino)-6-morpholinopyrimidin-4-yl)-4-methylphenyl)isonicotinamide], 0.8 nM; to `Cc1ccc(NC(=O)c2ccccc2)cc1-c1cc(N2CCOCC2)n(C)c(=O)c1` [Example 473, N-(4-methyl-3-(1-methyl-6-morpholino-2-oxo-1,2-dihydropyridin-4-yl)phenyl)benzamide], 12.1 nM. `Cc1ncc(NC(=O)c2ccnc(S(C)(=O)=O)c2)cc1-c1cc(N2CCOCC2)n2nccc2n1` [Example 807, N-(6-methyl-5-(7-morpholinopyrazolo[1,5-a]pyrimidin-5-yl)pyridin-3-yl)-2-(methylsulfonyl)isonicotinamide]: the IC50 stood at 8.8 nM. As for `Cc1ccc(NC(=O)c2ccnc(C(C)(C)F)c2)cc1-c1cc(N2CCOC[C@H]2C)c(=O)n(C)n1` [Example 673, (R)-2-(2-fluoropropan-2-yl)-N-(4-methyl-3-(1-methyl-5-(3-methylmorpholino)-6-oxo-1,6-dihydropyridazin-3-yl)phenyl)isonicotinamide], the IC50 is 6.3 nM. As for `Cc1ccc(NC(=O)c2ccnc(C(C)(C)C#N)c2)cc1-c1cc(N2CCOCC2)nc(N(C)C)n1` [Example 755, 2-(2-cyanopropan-2-yl)-N-(3-(2-(dimethylamino)-6-morpholinopyrimidin-4-yl)-4-methylphenyl)isonicotinamide], the IC50 stood at 17.8 nM.

For `CCC(F)(F)c1cc(C(=O)Nc2ccc(C)c(-c3cc(N4CCOCC4)c(=O)n(C)n3)c2)ccn1` [Example 643, 2-(1,1-difluoropropyl)-N-(4-methyl-3-(1-methyl-5-morpholino-6-oxo-1,6-dihydropyridazin-3-yl)phenyl)isonicotinamide], the IC50 turned out to be 1.3 nM. Still for that read-out and setting: then `CCC(F)(F)c1cc(C(=O)Nc2ccc(C)c(-c3cc(N4CCOCC4)c(OC)nn3)c2)ccn1` [Example 549, 2-(1,1-difluoropropyl)-N-(3-(6-methoxy-5-morpholinopyridazin-3-yl)-4-methylphenyl)isonicotinamide], with 2.1 nM.

The experiment is the same for the next values; noted with them: read-out: b-Raf IC-50; AlphaScreen, 60 min pre-incubation, reaction 3 hours at room temperature.
In the case of `Cc1ccc(NC(=O)c2ccnc(C(C)(C)C#N)c2)cc1-c1cc(NC[C@@H](C)O)nc(N2CCOCC2)n1` [Example 1026, (R)-2-(2-cyanopropan-2-yl)-N-(3-(6-((2-hydroxypropyl)amino)-2-morpholinopyrimidin-4-yl)-4-methylphenyl)isonicotinamide], the IC50 turned out to be 12.9 nM. Still for that read-out and setting: then `Cc1ncc(NC(=O)c2ccnc(C(C)(C)C)c2)cc1-c1cc(N2CCOCC2)nc(N2CC(O)C2)c1` [Example 1089, 2-(tert-butyl)-N-(2′-(3-hydroxyazetidin-1-yl)-2-methyl-6′-morpholino-[3,4′-bipyridin]-5-yl)isonicotinamide], with 71.4 nM; and `Cc1ccc(NC(=O)c2cc(C(C)(C)C#N)ccn2)cc1-c1cnc(OC(C)C)c(N2CCOCC2)c1` [Example 948, 4-(2-cyanopropan-2-yl)-N-(3-(6-isopropoxy-5-morpholinopyridin-3-yl)-4-methylphenyl)picolinamide], with 2.33 nM.

As for `Cc1ccc(NC(=O)c2ccnc(C(C)(F)F)c2)cc1-c1cnc(OC(C)C)c(N2CCOCC2)c1` [Example 945, 2-(1,1-difluoroethyl)-N-(3-(6-isopropoxy-5-morpholinopyridin-3-yl)-4-methylphenyl)isonicotinamide], the IC50 stood at 1.35 nM. Same read-out and setting: to `Cc1ncc(NC(=O)c2ccnc(C(C)(F)F)c2)cc1-c1cc(N2CCOCC2)c(OC(C)C)nn1` [Example 912, 2-(1,1-difluoroethyl)-N-(5-(6-isopropoxy-5-morpholinopyridazin-3-yl)-6-methylpyridin-3-yl)isonicotinamide] belongs 2.25 nM.

The experiment is the same for the next values; noted with them: read-out: b-Raf IC-50; Table 2; AlphaScreen, 3 hours reaction.
With `Cc1ncc(NC(=O)c2cnnc(C(C)(C)C#N)c2)cc1-c1cnc(Cl)c(N2CCOCC2)c1` [Example 293, N-(6′-chloro-2-methyl-5′-morpholino-[3,3′-bipyridin]-5-yl)-6-(2-cyanopropan-2-yl)pyridazine-4-carboxamide], the IC50 amounted to 32.3 nM. `COc1ncc(-c2cc(NC(=O)c3ccnc(C(C)C)c3)cnc2C)cc1N1CCOCC1` [Example 323, 2-isopropyl-N-(6′-methoxy-2-methyl-5′-morpholino-[3,3′-bipyridin]-5-yl)isonicotinamide]: the IC50 worked out at 12.9 nM. Still for that read-out and setting: then `CCc1cccc(NC(=O)c2ccc(C)c(-c3cc(N4CCOCC4)c(=O)n(C)c3)c2)c1` [Example 435, N-(3-ethylphenyl)-4-methyl-3-(1-methyl-5-morpholino-6-oxo-1,6-dihydropyridin-3-yl)benzamide], with 2.4 nM; and `Cc1ncc(NC(=O)c2ccnc(C(F)(F)F)c2)cc1-c1cnc(OC2CCOCC2)c(N2C3CCC2COC3)c1` [Example 278, N-(5′-(3-oxa-8-azabicyclo[3.2.1]octan-8-yl)-2-methyl-6′-((tetrahydro-2H-pyran-4-yl)oxy)-[3,3′-bipyridin]-5-yl)-2-(trifluoromethyl)isonicotinamide], with 8.4 nM; and `Cc1ccc(NC(=O)c2cnnc(C(C)(C)F)c2)cc1-c1cc(N2CCOCC2)c(=O)n(C)c1` [Example 363, 6-(2-fluoropropan-2-yl)-N-(4-methyl-3-(1-methyl-5-morpholino-6-oxo-1,6-dihydropyridin-3-yl)phenyl)pyridazine-4-carboxamide], with 3.8 nM. Regarding `Cn1cc(-c2cc(NC(=O)c3cccc(C(F)(F)F)c3)cnc2Cl)cc(N2CCOCC2)c1=O` [Example 407, N-(2-chloro-1′-methyl-5′-morpholino-6′-oxo-1′,6′-dihydro-[3,3-bipyridin]-5-yl)-3-(trifluoromethyl)benzamide], the IC50 came out at 1.4 nM.

Regarding `Cn1cc(-c2cc(C(=O)Nc3cccc(C(C)(C)C#N)c3)ccc2Cl)cc(N2CCOCC2)c1=O` [Example 427, 4-chloro-N-(3-(2-cyanopropan-2-yl)phenyl)-3-(1-methyl-5-morpholino-6-oxo-1,6-dihydropyridin-3-yl)benzamide], the IC50 was determined as 6 nM. On the same count and under the same terms, to `Cc1ncc(NC(=O)c2cccc(C(F)(F)F)c2)cc1-c1cnc(O[C@H]2CC[C@H](O)CC2)c(N2CCOCC2)c1` [Example 316, N-(6′-(((1r,4r)-4-hydroxycyclohexyl)oxy)-2-methyl-5′-morpholino-[3,3′-bipyridin]-5-yl)-3-(trifluoromethyl)benzamide] belongs 3.1 nM; to `Cc1ncc(NC(=O)c2ccnc(C(C)(C)C#N)c2)cc1-c1cc(N2CCOCC2)c(=O)n(C)n1` [Example 167, 2-(2-cyanopropan-2-yl)-N-(6-methyl-5-(1-methyl-5-morpholino-6-oxo-1,6-dihydropyridazin-3-yl)pyridin-3-yl)isonicotinamide], 53.4 nM; to `CCOc1ncc(-c2cc(NC(=O)c3ccnc(C(C)(C)C#N)c3)ccc2C)cc1N1CCOCC1` [Example 161, 2-(2-cyanopropan-2-yl)-N-(3-(6-ethoxy-5-morpholinopyridin-3-yl)-4-methylphenyl)isonicotinamide], 2.9 nM. Same read-out and setting: to `COc1ncc(-c2cc(NC(=O)c3ccnc(C4(C#N)CC4)c3)cnc2Cl)cc1N1CCOCC1` [Example 260, N-(2-chloro-6′-methoxy-5′-morpholino-[3,3′-bipyridin]-5-yl)-2-(1-cyanocyclopropyl)isonicotinamide] belongs 2.9 nM.
